In brackets after ≈: the same amount, converted by molar mass. Activity calls are given as the source filed them. No cut-off for these calls is given here. Bridge positions count the residues as written; N and C are the ends. Square brackets hold non-standard residues; d marks the D form. Peptide text beside a SMILES is read from it. * marks the point of attachment. X1 = CC[C@H](C)CCCCC(=O)*; Dab = NCC[C@H](N)C(=O)O
Assays:
Pseudomonas aeruginosa [1] = assay: Antimicrobial activity against clinical isolate CF333-2007 Pseudomonas aeruginosa DK2 measured after 18 hrs in presence of polymyxin B by microbroth dilution assay; assay type: functional
Pseudomonas aeruginosa [2] = assay: Antimicrobial activity against clinical isolate CF333-2007 Pseudomonas aeruginosa DK2 measured after 18 hrs by microbroth dilution assay; assay type: functional
Pseudomonas aeruginosa [3] = assay: Synergistic antibacterial activity against clinical isolate CF333-2007 Pseudomonas aeruginosa DK2 assessed as fractional inhibitory concentration index incubated for 18 hrs in presence of Polymyxin B; assay type: functional
Pseudomonas aeruginosa [4] = assay: Antimicrobial activity against clinical isolate CF333-2007 Pseudomonas aeruginosa DK2 assessed as polymyxin B MIC measured after 18 hrs by microbroth dilution assay; assay type: functional
Pseudomonas aeruginosa [5] = assay: Drug resistance against pseudomonas aeruginosa DK2 assessed as fold increase in MIC measured after repeated passaging for 14 days; assay type: functional; settings: time 14 day
Pseudomonas aeruginosa [6] = assay: Antibacterial activity against Pseudomonas aeruginosa DK2 assessed as reduction in bacterial growth at 0.5 ug/ml measured after 24 hrs by time kill assay; assay type: functional; settings: dose 0.5 µg/ml
Pseudomonas aeruginosa [7] = assay: Drug resistance against pseudomonas aeruginosa DK2 assessed as increase in MIC measured after repeated passaging for 14 days; assay type: functional; settings: DK2, 336 h, time 14 day
Pseudomonas aeruginosa [8] = assay: Antibacterial activity against Pseudomonas aeruginosa PAO1 infected in Caenorhabditis elegans N2 worms at 16 ug/ml; assay type: functional, organism-based; settings: dose 16.0 µg/ml
Pseudomonas aeruginosa [9] = assay: Synergistic inhibition of PA3552-lux expression in Pseudomonas aeruginosa DK2 at 1 ug/ml measured after 5 to 8 hrs in presence of polymyxin B by microplate reader assay; assay type: functional, organism-based; settings: dose 1.0 µg/ml, time 5-8 hrs
[10] = Acute toxicity in ICR mouse assessed as mortality at 50 mg/kg, ip administered as single dose measured after 2 hrs; assay type: organism-based; settings: in vivo, read-out: Activity
Acinetobacter baumannii = assay: Synergistic antibacterial activity against Acinetobacter baumannii 186 assessed as fold decrease in polymyxin MIC at 8 ug/ml; assay type: functional; settings: dose 8 µg/ml
Pseudomonas aeruginosa [11] = assay: Antibacterial activity against Pseudomonas aeruginosa PAO1 infected in Caenorhabditis elegans N2 worms assessed as colonization of bacteria on intestinal tract at 8 ug/ml in presence of polymyxin B; assay type: functional, organism-based; settings: dose 8.0 µg/ml
[12] = Acute toxicity in ICR mouse assessed as mortality at 50 mg/kg, ip administered as single dose; assay type: organism-based; settings: in vivo
Pseudomonas aeruginosa [13] = assay: Inhibition of PA3552-lux expression in Pseudomonas aeruginosa DK2 at 1 ug/ml measured after 5 to 8 hrs by microplate reader assay; assay type: functional; settings: dose 1.0 µg/ml, time 5-8 hrs
Pseudomonas aeruginosa [14] = assay: Synergistic antibacterial activity against Pseudomonas aeruginosa PAO1 infected in Caenorhabditis elegans N2 worms assessed as worms survival at 4 to 8 ug/ml in presence of polymyxin B; assay type: functional; settings: dose 4-8 µg/ml; at 4 to 8 µg/mL
Klebsiella pneumoniae [15] = assay: Synergistic antibacterial activity against Klebsiella pneumoniae 674 assessed as polymyxin MIC at 8 ug/ml; assay type: functional; settings: dose 8 µg/ml
Klebsiella pneumoniae [16] = assay: Synergistic antibacterial activity against Klebsiella pneumoniae 674 assessed as fold decrease in polymyxin MIC at 8 ug/ml; assay type: functional; settings: dose 8 µg/ml
Escherichia coli [17] = assay: Synergistic antibacterial activity against Escherichia coli 15017 assessed as fold decrease in polymyxin MIC at 8 ug/ml; assay type: functional; settings: dose 8 µg/ml
[18] = Acute toxicity in ICR mouse assessed as effect on liver at 50 mg/kg, ip administered as single dose measured after 7 days; assay type: organism-based; settings: in vivo, 168 h, time 7 day
Pseudomonas aeruginosa [19] = assay: Antibacterial activity against Pseudomonas aeruginosa PAO1 assessed as reduction in bacterial growth at 2 ug/ml measured after 24 hrs in presence of polymyxin B by time kill assay; assay type: functional; settings: dose 2 µg/ml
[20] = Acute toxicity in ICR mouse assessed as effect on heart at 50 mg/kg, ip administered as single dose measured after 7 days; assay type: organism-based; settings: in vivo, 168 h, time 7 day
[21] = Acute toxicity in ICR mouse assessed as effect on lungs at 50 mg/kg, ip administered as single dose measured after 7 days; assay type: organism-based, Lung; settings: in vivo, 168 h, time 7 day
[22] = Acute toxicity in ICR mouse assessed as effect on body weight at 50 mg/kg, ip administered as single dose measured daily for 7 days; assay type: organism-based; settings: in vivo, 168 h, time 7 day
[23] = Acute toxicity in ICR mouse assessed as effect on spleen at 50 mg/kg, ip administered as single dose measured after 7 days; assay type: organism-based; settings: in vivo, 168 h, time 7 day
Pseudomonas aeruginosa [24] = assay: Suppression of polymyxin drug resistance development against pseudomonas aeruginosa DK2 at 4 ug/ml in presence of polymyxin B after repeated passaging for 14 days; assay type: functional; settings: dose 4 µg/ml; time 14 day
Pseudomonas aeruginosa [25] = assay: Antibacterial activity against Pseudomonas aeruginosa DK2 assessed as reduction in bacterial growth at 4 ug/ml measured after 24 hrs in presence […] of polymyxin B by time kill assay; assay type: functional; settings: dose 4 µg/ml
[26] = Acute toxicity in ICR mouse assessed as effect on kidney at 50 mg/kg, ip administered as single dose measured after 7 days; assay type: organism-based; settings: in vivo, 168 h, time 7 day
Escherichia coli [27] = assay: Synergistic antibacterial activity against Escherichia coli 15017 assessed as polymyxin MIC at 8 ug/ml; assay type: functional; settings: dose 8 µg/ml

MIC (Pseudomonas aeruginosa [1]) [µg/mL] | MIC (Pseudomonas aeruginosa [2]) [µg/mL] | MIC (Pseudomonas aeruginosa [4]) [µg/mL] | Compound | fractional inhibitory concentration index (FICI) (Pseudomonas aeruginosa [3]) | other results
2 | > 1020 | 2 | O=C(Nc1ccc([N+](=O)[O-])cc1Cl)c1ccccc1O | 0.01 | 
> 32 | > 1020 | > 32 | O=C(O)c1ccc(NC(=O)c2cc(Cl)ccc2O)c(Cl)c1 |  | 
32 | > 1020 | 1 | O=C(Nc1ccc([N+](=O)[O-])cc1Cl)c1cc(Br)ccc1O | 0.066 | 
 | > 1020 |  | O=C(Nc1ccc(N2CCOCC2=O)cc1)c1cc(F)ccc1O |  | 
8 | > 1020 | 4 | COc1ccc(O)c(C(=O)Nc2ccc([N+](=O)[O-])cc2Cl)c1 | 0.023 | 
8 | > 1020 | 1 | O=C(Nc1ccc([N+](=O)[O-])cc1Cl)c1ccc(Br)cc1O | 0.012 | 
16 | > 1020 | 2 | O=C(Nc1ccc([N+](=O)[O-])cc1Cl)c1cc(C(F)(F)F)ccc1O | 0.023 | 
16 |  | 8 | O=C(Oc1ccc([N+](=O)[O-])cc1Cl)c1cc(Cl)ccc1O | 0.141 | 
2 |  | 2 | O=C(Nc1ccc([N+](=O)[O-])cc1Cl)c1cc(Cl)ccc1O [NICLOSAMIDE] | 0.01 | 
16 | > 1020 | 16 | O=C(Nc1ccc([N+](=O)[O-])cc1Cl)c1cc(Cl)ccc1OC(=O)[C@@H]1CCCN1 | 0.078 | 
32 | > 1020 | 16 | O=C(Nc1ccc([N+](=O)[O-])cc1Cl)c1cc(Cl)ccc1O[C@H]1O[C@H](CO)[C@H](O)[C@H](O)[C@H]1O | 0.094 | 
> 32 | > 1020 | > 32 | O=C(Nc1ccc([N+](=O)[O-])cc1Cl)c1cc(O)ccc1O |  | 

More lines, now with the values behind:

Compound | MIC (Pseudomonas aeruginosa [1]) [µg/mL] | MIC (Pseudomonas aeruginosa [2]) [µg/mL] | MIC (Pseudomonas aeruginosa [4]) [µg/mL] | fractional inhibitory concentration index (FICI) (Pseudomonas aeruginosa [3]) | other results
O=C(Nc1ccc([N+](=O)[O-])cc1Cl)c1cccc(Cl)c1 | > 32 | > 1020 | > 32 |  | 
O=C(Nc1ccc([N+](=O)[O-])cc1Cl)c1ccncc1 | > 32 | > 1020 | > 32 |  | 
Nc1ccc(NC(=O)c2cc(Cl)ccc2O)c(Cl)c1 | 16 | > 1020 | 8 | 0.047 | 
O=C(Nc1ccc(S)cc1)c1cc(Cl)ccc1O | > 32 | > 1020 | > 32 |  | 
O=C(Nc1ccc(O)cc1Cl)c1ccc(Br)cc1O |  | > 1020 |  |  | 
O=C(Nc1ccccc1)c1cc(Cl)ccc1O | 4 | > 1020 | 2 | 0.012 | 
CC[C@H](C)CCCCC(=O)N[C@@H](CCN)C(=O)N[C@H](C(=O)N[C@@H](CCN)C(=O)N[C@H]1CCNC(=O)[C@H]([C@@H](C)O)NC(=O)[C@H](CCN)NC(=O)[C@H](CCN)NC(=O)[C@H](CC(C)C)NC(=O)[C@@H](Cc2ccccc2)NC(=O)[C@H](CCN)NC1=O)[C@@H](C)O (X1-[Dab]T[Dab][Dab][Dab][dF]L[Dab][Dab]T; lactam 4-C) |  | 256 (≈ 0.213 mM) |  |  | fold change (FC) (Pseudomonas aeruginosa [5]): 32; Activity (Pseudomonas aeruginosa [6]): 6.38 log10CFU/ml; MIC (Pseudomonas aeruginosa [7]): 8190 µg/mL; Activity (Pseudomonas aeruginosa [8]): Active
O=C(Nc1ccc([N+](=O)[O-])cc1Cl)c1cccc(Br)c1O | 16 |  | 1 | 0.254 | 
O=C(Nc1ccc([N+](=O)[O-])cc1Cl)c1cc(F)c(F)cc1O | 8 | > 1020 | 1 | 0.012 | 
O=C(Nc1ccc(O[C@H]2O[C@H](CO)[C@H](O)[C@H](O)[C@H]2O)cc1Cl)c1cc(Cl)ccc1O | > 32 | > 1020 | > 32 |  | 
Cc1ccc(O)c(C(=O)Nc2ccc([N+](=O)[O-])cc2Cl)c1 | 1 | > 1020 | 4 | 0.017 | 
O=C(Nc1cc(Cl)ccc1O)c1ccc([N+](=O)[O-])cc1Cl | 16 | > 1020 | 4 | 0.031 | 
O=C(Nc1ccc([N+](=O)[O-])cc1Cl)c1cc(F)ccc1O | 4 | > 1020 | 1 | 0.008 | inhibition (Pseudomonas aeruginosa [9]): Active; mortality at 2 h [10]: 80%; fold change (FC) (Acinetobacter baumannii): 16; Activity (Pseudomonas aeruginosa [11]): Active; Activity [12]: Non-Toxic; inhibition (Pseudomonas aeruginosa [13]): Active; Survival (Pseudomonas aeruginosa [14]): 7.31%; MIC (Klebsiella pneumoniae [15]): 1 µg/mL; fold change (FC) (Klebsiella pneumoniae [16]): 256; fold change (FC) (Escherichia coli [17]): 16; Activity [18]: Non-Toxic; Activity (Pseudomonas aeruginosa [19]): >5 log10CFU/ml; Activity [20]: Non-Toxic; Activity [21]: Non-Toxic; Activity [22]: Non-Toxic; Activity [23]: Non-Toxic; Activity (Pseudomonas aeruginosa [24]): 100%; Activity (Pseudomonas aeruginosa [25]): 2.88 log10CFU/ml; Activity [26]: Non-Toxic; MIC (Escherichia coli [27]): 0.25 µg/mL
O=C(Nc1ccc(S(=O)(=O)N2CCOCC2)cc1)c1cc(F)ccc1O |  | > 1020 |  |  | 
O=C(Nc1ccc2[nH]c(=O)sc2c1)c1cc(F)ccc1O |  | > 1020 |  |  | 
O=C(Nc1ccc([N+](=O)[O-])cc1O)c1cc(Cl)ccc1O | 4 |  | 4 | 0.078 | 
O=C(Nc1cccnc1)c1cc(Cl)ccc1O | > 32 | > 1020 | > 32 |  | 
O=C(Nc1ccc(O)cc1Cl)c1cc(F)ccc1O |  | > 1020 |  |  | 
O=C(Nc1ccccc1Cl)c1cc(Cl)ccc1O | 4 | > 1020 | 2 | 0.012 | 
O=C(Nc1ccc([N+](=O)[O-])cc1Cl)c1ccc(F)cc1O | 16 |  | 1 | 0.066 | 
CC(=O)N1CCc2cc(NC(=O)c3cc(F)ccc3O)ccc21 |  | > 1020 |  |  | 
O=C(Nc1ccc([N+](=O)[O-])cc1Cl)c1ccccc1 | > 32 | > 1020 | > 32 |  | 
O=C(Nc1ccc(O)cc1Cl)c1cc(Cl)ccc1O | 32 |  | 4 | 0.141 | 
O=C(Nc1ccc([N+](=O)[O-])cc1Cl)c1cccc(F)c1O | 32 |  | 1 | 0.129 | 
O=C(Nc1ccc([N+](=O)[O-])cc1Cl)c1ccc(O)cc1O | > 32 | > 1020 | > 32 |  | 

Source: ChEMBL document CHEMBL5131512, “Novel niclosamide-derived adjuvants elevating the efficacy of polymyxin B against MDR Pseudomonas aeruginosa DK2” (Eur J Med Chem, 2022)
